{"source": "patent US12453719B2", "about": "“Treatment method using a complex of angiotensin II receptor antagonist metabolite and NEP inhibitor” (Shenzhen Salubris Pharmaceuticals Co., Ltd., priority 2019, dated 2025)", "origin": "cited, not measured here", "key": {"[1]": {"conditions": "arithmetic mean"}, "[2]": {"conditions": "single oral administration of Losartan"}}, "note": "Where two headings read alike, the source gives them in different places."}
{"smiles": "CCCCc1nc(Cl)c(CO)n1Cc1ccc(-c2ccccc2-c2nn[nH]n2)cc1", "note": "[Losartan]", "values": [{"measurement": "AUC Losartan", "setting": "[1]; single administration of Losartan 40 mg (n = 15)", "result": 391.5, "unit": "ng·h/mL"}, {"measurement": "AUC Losartan", "setting": "[1]; single administration of Losartan 50 mg (n = 12)", "result": 395.0, "unit": "ng·h/mL"}, {"measurement": "AUC Losartan", "setting": "[1]; single administration of Losartan 80 mg (n = 8)", "result": 932.7, "unit": "ng·h/mL"}, {"measurement": "AUC Losartan", "setting": "[1]; single administration of Losartan 120 mg (n = 8)", "result": 1277.7, "unit": "ng·h/mL"}, {"measurement": "AUC Losartan", "setting": "[1]; single administration of Losartan 150 mg (n = 8)", "result": 1678.0, "unit": "ng·h/mL"}, {"measurement": "AUC Losartan", "setting": "[1]; single administration of Losartan 200 mg (n = 15)", "result": 2371.6, "unit": "ng·h/mL"}, {"measurement": "AUC Losartan", "setting": "[1]; single administration of Losartan 250 mg (n = 7)", "result": 2567.3, "unit": "ng·h/mL"}, {"measurement": "AUC Losartan", "setting": "[1]; single administration of Losartan 300 mg (n = 7)", "result": 3492.4, "unit": "ng·h/mL"}, {"measurement": "in vivo EXP3174 exposure (AUC) relative to the prototype drug", "setting": "[2]", "result": "about four"}]}
